Structures are written as SMILES. Where a name gives a salt, the structure may show the parent alone.

Experiment [1] concerns the target T1, Adrenergic β2 (Homo sapiens, UniProt P07550).
T1 construct: Adherent H292 cells were removed from tissue culture flasks; endogenous in cells; host or cells: H292 cells
The experiment can be described thus: Adrenergic β2 mediated cAMP production in H292 cells. Particulars: for EC50: read-out: β2 pEC50 (converted); for β2 Int Act: Intrinsic Activity as a fraction relative to the maximum activity determined for formoterol. The format is cell-based. In short, it runs like this: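 H292 cells pretreated 10 min with rolipram (300 μM final), then exposed to agonist 60 min at room temperature in HEPES-buffered HBSS, 1.6% DMSO final. Lysate cAMP quantified by AlphaScreen against a cAMP standard curve; four-parameter fit gives pEC50 and intrinsic activity relative to formoterol maximum.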

The target in experiment [2] is T2, recombinant human adrenergic beta 1 receptors (Homo sapiens, UniProt P08588).
T2 construct: purchased Euroscreen
The experiment can be described thus: Adrenergic β1 selectivity binding assay ([125I]-Iodocyanopindolol). The following applies: inhibition of [125I]-Iodocyanopindolol (0.036 nM) binding; for IC50: read-out: β1 bind p IC50 (converted). In short, it runs like this:
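Recombinant human β1 membranes in HEPES buffer pH 7.4 with 120 mM NaCl were incubated 2 hours at room temperature with 0.036 nM [^125I]-Iodocyanopindolol. Nonspecific binding defined by 10 μM propranolol; bound radioactivity counted after filtration. pIC50 from four-parameter logistic fit.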

In experiment [3] the target is T3, recombinant human Dopamine Subtype D2s receptors (Homo sapiens, UniProt P14416).
T3 construct: purchased Perkin Elmer
The experiment can be described thus: Dopamine D2 selectivity binding assay ([3H]-spiperone). Particulars: inhibition of [3H]-spiperone (0.16 nM) binding; for IC50: read-out: D2 bind pIC50 (converted). In short, it runs like this: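 Recombinant human D2s membranes incubated 2 h at room temperature with 0.16 nM [3H]-spiperone in HEPES/EDTA/NaCl/gelatin buffer, pH 7.4; 10 μM haloperidol defined non-specific binding. Filter-bound radioactivity counted after cold washes. pIC50 from 4-parameter logistic fit of NSB-corrected specific binding.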

Setting [4] is: H292 cells, cAMP by AlphaScreen, 60 minutes at room temperature, rolipram 300 μM.

T2 sequence (P08588 whole entry): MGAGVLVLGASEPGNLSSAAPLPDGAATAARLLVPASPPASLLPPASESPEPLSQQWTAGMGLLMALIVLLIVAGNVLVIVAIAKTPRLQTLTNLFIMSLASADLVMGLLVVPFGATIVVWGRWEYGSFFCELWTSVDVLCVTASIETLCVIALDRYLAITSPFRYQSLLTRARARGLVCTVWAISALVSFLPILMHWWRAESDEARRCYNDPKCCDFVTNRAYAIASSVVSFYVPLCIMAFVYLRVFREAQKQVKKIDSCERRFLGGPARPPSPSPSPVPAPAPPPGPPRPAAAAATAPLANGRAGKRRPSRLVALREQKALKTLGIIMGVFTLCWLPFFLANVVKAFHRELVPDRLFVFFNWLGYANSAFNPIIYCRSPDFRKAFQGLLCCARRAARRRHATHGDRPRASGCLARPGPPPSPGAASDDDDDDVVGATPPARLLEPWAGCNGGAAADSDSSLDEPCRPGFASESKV
T3 sequence (P14416 1-414 isoform P14416-2): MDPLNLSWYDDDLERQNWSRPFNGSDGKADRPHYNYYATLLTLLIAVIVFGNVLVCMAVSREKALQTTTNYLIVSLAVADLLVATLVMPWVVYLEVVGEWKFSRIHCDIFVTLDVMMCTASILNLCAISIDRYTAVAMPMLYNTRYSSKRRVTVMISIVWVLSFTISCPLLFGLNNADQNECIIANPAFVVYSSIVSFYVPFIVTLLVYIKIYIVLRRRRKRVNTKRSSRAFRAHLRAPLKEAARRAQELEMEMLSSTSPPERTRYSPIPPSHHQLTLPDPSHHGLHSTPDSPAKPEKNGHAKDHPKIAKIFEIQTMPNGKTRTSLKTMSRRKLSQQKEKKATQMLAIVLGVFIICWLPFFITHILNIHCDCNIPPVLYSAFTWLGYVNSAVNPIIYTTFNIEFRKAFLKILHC
T1 sequence (P07550 whole entry): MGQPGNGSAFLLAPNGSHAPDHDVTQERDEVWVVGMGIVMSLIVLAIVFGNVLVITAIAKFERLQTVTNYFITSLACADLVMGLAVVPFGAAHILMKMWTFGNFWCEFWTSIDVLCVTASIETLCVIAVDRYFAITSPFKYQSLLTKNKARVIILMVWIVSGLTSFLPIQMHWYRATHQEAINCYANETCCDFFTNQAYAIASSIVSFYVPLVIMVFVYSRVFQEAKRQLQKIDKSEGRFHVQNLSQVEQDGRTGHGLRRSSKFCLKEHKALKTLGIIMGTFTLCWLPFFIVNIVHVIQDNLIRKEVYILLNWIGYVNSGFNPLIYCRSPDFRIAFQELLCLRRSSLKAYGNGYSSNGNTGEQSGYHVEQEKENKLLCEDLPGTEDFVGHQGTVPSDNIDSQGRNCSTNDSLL

Regarding `COc1ccc(CCNCCC(=O)N(CCNCCc2ccc(O)c3[nH]c(=O)sc23)C2CCCCC2)cc1` [Example 68, N^1-Cyclohexyl-N^1-(2-{[2-(4-hydroxy-2-oxo-2,3-dihydro-1,3-benzothiazol-7-yl)ethyl]amino}ethyl)-N^3-[2-(4-methoxyphenyl)ethyl]-β-alaninamide bis-trifluoroacetic acid salt], the EC50 in experiment [1] (setting [4]) is 10 nM. In addition, the “β2 Int Act” value in experiment [1] stood at 0.68. For the same molecule, the IC50 is 3980 nM in experiment [2] and 50.1 nM in experiment [3].

With `NS(=O)(=O)c1ccc(CCNCCC(=O)N(CCNCCc2ccc(O)c3[nH]c(=O)sc23)C2CCCCC2)cc1` [Example 69, N^3-{2-[4-(Aminosulfonyl)phenyl]ethyl}-N^1-cyclohexyl-N^1-(2-{[2-(4-hydroxy-2-oxo-2,3-dihydro-1,3-benzothiazol-7-yl)ethyl]amino}ethyl)-β-alaninamide bis-trifluoroacetic acid salt], the EC50 in experiment [1] (setting [4]) was 2 nM. Besides, the “β2 Int Act” value in experiment [1] was found to be 0.82. The IC50 in experiment [2] is 6310 nM; in experiment [3], 100 nM.

As for `O=C(CCNCCc1cccc(O)c1)N(CCNCCc1ccc(O)c2[nH]c(=O)sc12)C1CCCCC1` [Example 71, N^1-Cyclohexyl-N^1-(2-{[2-(4-hydroxy-2-oxo-2,3-dihydro-1,3-benzothiazol-7-yl)ethyl]amino}ethyl)-N^3-[2-(3-hydroxyphenyl)ethyl]-β-alaninamide bis-trifluoroacetic acid salt], the EC50 in experiment [1] (setting [4]) was 0.398 nM. Moreover, in experiment [1], the “β2 Int Act” value is given as 0.97. The IC50 in experiment [2] is 3980 nM; in experiment [3], 100 nM.

Regarding `O=C(CCNCCc1ccc(Cl)s1)N(CCNCCc1ccc(O)c2[nH]c(=O)sc12)C1CCCCC1` [Example 72, N^3-[2-(5-Chloro-2-thienyl)ethyl]-N^1-cyclohexyl-N^1-(2-{[2-(4-hydroxy-2-oxo-2,3-dihydro-1,3-benzothiazol-7-yl)ethyl]amino}ethyl)-β-alaninamide bis-trifluoroacetic acid salt], in experiment [1] (setting [4]), the EC50 is 3.98 nM. In experiment [1], the “β2 Int Act” value amounted to 0.89. Further, the IC50 was 3160 nM in experiment [2] and 126 nM in experiment [3].

Consider `O=C(CCNCCc1ccc(F)c(F)c1)N(CCNCCc1ccc(O)c2[nH]c(=O)sc12)C1CCCCC1` [Example 73, N^1-Cyclohexyl-N^3-[2-(3,4-difluorophenyl)ethyl]-N^1-(2-{[2-(4-hydroxy-2-oxo-2,3-dihydro-1,3-benzothiazol-7-yl)ethyl]amino}ethyl)-β-alaninamide bis-trifluoroacetic acid salt], for which the EC50 in experiment [1] (setting [4]) is 5.01 nM. For the same molecule, in experiment [1], the “β2 Int Act” value is 0.85. In addition, the figures for the IC50 in experiment [2] and in experiment [3] were 7940 nM and 200 nM, respectively.

Turning to `O=C(CCNC[C@@H](O)c1ccccc1)N(CCNCCc1ccc(O)c2[nH]c(=O)sc12)C1CCCCC1` [Example 74, N^1-Cyclohexyl-N^1-(2-{[2-(4-hydroxy-2-oxo-2,3-dihydro-1,3-benzothiazol-7-yl)ethyl]amino}ethyl)-N^3-[(2S)-2-hydroxy-2-phenylethyl]-β-alaninamide bis-trifluoroacetic acid salt], the EC50 in experiment [1] (setting [4]) was 12.6 nM. In addition, the “β2 Int Act” value in experiment [1] is 0.79. The IC50 in experiment [2] was 3160 nM; in experiment [3] it was 501 nM.

Take `O=C(CCNC[C@H](O)c1ccccc1)N(CCNCCc1ccc(O)c2[nH]c(=O)sc12)C1CCCCC1` [Example 75, N^1-Cyclohexyl-N^1-(2-{[2-(4-hydroxy-2-oxo-2,3-dihydro-1,3-benzothiazol-7-yl)ethyl]amino}ethyl)-N^3-[(2R)-2-hydroxy-2-phenylethyl]-β-alaninamide bis-trifluoroacetic acid salt]: in experiment [1] (setting [4]), the EC50 is 10 nM. Also, the “β2 Int Act” value in experiment [1] came to 0.91. Moreover, the IC50 in experiment [2] was 631 nM; in experiment [3], 398 nM.

For `O=C(CCNCCc1ccc2c(c1)OCO2)N(CCNCCc1ccc(O)c2[nH]c(=O)sc12)C1CCCCC1` [Example 76, N^3-[2-(1,3-Benzodioxol-5-yl)ethyl]-N^1-cyclohexyl-N^1-(2-{[2-(4-hydroxy-2-oxo-2,3-dihydro-1,3-benzothiazol-7-yl)ethyl]amino}ethyl)-β-alaninamide bis-trifluoroacetic acid salt], in experiment [1] (setting [4]), the EC50 is 6.31 nM. Besides, the “β2 Int Act” value in experiment [1] is given as 0.68. Also, the IC50 in experiment [2] was 3980 nM; in experiment [3] it was 200 nM.

Turning to `O=C(CCNCCc1nc2ccccc2[nH]1)N(CCNCCc1ccc(O)c2[nH]c(=O)sc12)C1CCCCC1` [Example 77, N^3-[2-(1H-Benzimidazol-2-yl)ethyl]-N^1-cyclohexyl-N^1-(2-{[2-(4-hydroxy-2-oxo-2,3-dihydro-1,3-benzothiazol-7-yl)ethyl]amino}ethyl)-β-alaninamide tris-trifluoroacetic acid salt], the EC50 in experiment [1] (setting [4]) is 158 nM. The “β2 Int Act” value in experiment [1] is on record as 0.54. Moreover, the results for the IC50 in experiment [2] and in experiment [3] were 6310 nM and 158 nM, respectively.

As for `O=C(CCNCCc1cc(F)cc(F)c1)N(CCNCCc1ccc(O)c2[nH]c(=O)sc12)C1CCCCC1` [Example 78, N^1-Cyclohexyl-N^3-[2-(3,5-difluorophenyl)ethyl]-N^1-(2-{[2-(4-hydroxy-2-oxo-2,3-dihydro-1,3-benzothiazol-7-yl)ethyl]amino}ethyl)-β-alaninamide bis-trifluoroacetic acid salt], the EC50 in experiment [1] (setting [4]) was 3.16 nM. For the same molecule, the “β2 Int Act” value in experiment [1] was 0.91. The figures for the IC50 in experiment [2] and in experiment [3] were 3980 nM and 316 nM, respectively.

On to `O=C(CCNCCc1cc(F)ccc1F)N(CCNCCc1ccc(O)c2[nH]c(=O)sc12)C1CCCCC1` [Example 79, N^1-Cyclohexyl-N^3-[2-(2,5-difluorophenyl)ethyl]-N^1-(2-{[2-(4-hydroxy-2-oxo-2,3-dihydro-1,3-benzothiazol-7-yl)ethyl]amino}ethyl)-β-alaninamide bis-trifluoroacetic acid salt], for which, in experiment [1] (setting [4]), the EC50 is 2.51 nM. Moreover, the “β2 Int Act” value in experiment [1] is listed as 0.84. Besides, the IC50 was 3160 nM in experiment [2] and 158 nM in experiment [3].

Consider `O=C(CCNCCc1cccc(F)c1F)N(CCNCCc1ccc(O)c2[nH]c(=O)sc12)C1CCCCC1` [Example 81, N^1-Cyclohexyl-N^3-[2-(2,3-difluorophenyl)ethyl]-N^1-(2-{[2-(4-hydroxy-2-oxo-2,3-dihydro-1,3-benzothiazol-7-yl)ethyl]amino}ethyl)-β-alaninamide bis-trifluoroacetic acid salt], for which the EC50 in experiment [1] (setting [4]) is 2.51 nM. Further, the “β2 Int Act” value in experiment [1] is recorded as 0.89. Moreover, the IC50 in experiment [2] is 6310 nM; in experiment [3], 316 nM.

`O=C(CCNCCc1cccc(C(F)(F)F)c1)N(CCNCCc1ccc(O)c2[nH]c(=O)sc12)C1CCCCCC1` [Example 82, N^1-Cycloheptyl-N^1-(2-{[2-(4-hydroxy-2-oxo-2,3-dihydro-1,3-benzothiazol-7-yl)ethyl]amino}ethyl)-N^3-{2-[3-(trifluoromethyl)phenyl]ethyl}-β-alaninamide bis-trifluoroacetic acid salt]: the EC50 in experiment [1] (setting [4]) is 79.4 nM. Also, in experiment [1], the “β2 Int Act” value is 0.86. Besides, the IC50 in experiment [2] was 2510 nM; in experiment [3], 50.1 nM.

Regarding `O=C(CCNCCc1cc(F)ccc1F)N(CCNCCc1ccc(O)c2[nH]c(=O)sc12)C1CCCCCC1` [Example 83, N^1-Cycloheptyl-N^3-[2-(2,5-difluorophenyl)ethyl]-N^1-(2-{[2-(4-hydroxy-2-oxo-2,3-dihydro-1,3-benzothiazol-7-yl)ethyl]amino}ethyl)-β-alaninamide bis-trifluoroacetic acid salt], the EC50 in experiment [1] (setting [4]) is 3.98 nM. For the same molecule, the “β2 Int Act” value in experiment [1] turned out to be 0.71. The IC50 in experiment [2] was 5010 nM; in experiment [3], 63.1 nM.

With `O=C(CCNCCc1c(F)cccc1F)N(CCNCCc1ccc(O)c2[nH]c(=O)sc12)C1CCCCCC1` [Example 84, N^1-Cycloheptyl-N^3-[2-(2,6-difluorophenyl)ethyl]-N^1-(2-{[2-(4-hydroxy-2-oxo-2,3-dihydro-1,3-benzothiazol-7-yl)ethyl]amino}ethyl)-β-alaninamide bis-trifluoroacetic acid salt], in experiment [1] (setting [4]), the EC50 was 20 nM. Moreover, the “β2 Int Act” value in experiment [1] worked out at 0.89. Besides, the IC50 in experiment [2] was 1000 nM; in experiment [3] it was 79.4 nM.

For `O=C(CCNCCc1cc(F)cc(F)c1)N(CCNCCc1ccc(O)c2[nH]c(=O)sc12)C1CCCCC1` [Example 92, N-Cyclohexyl-N^3-[2-(3,5-difluorophenyl)ethyl]-N-(2-{[2-(4-hydroxy-2-oxo-2,3-dihydro-1,3-benzothiazol-7-yl)ethyl]amino}ethyl)-β-alaninamide dihydrobromide salt], the “β2 pEC50” value in experiment [1] (setting [4]) was 8.5. Also, the “β1 bind p IC50” value in experiment [2] amounted to 5.4. Also, in experiment [3], the “D2 bind pIC50” value is listed as 6.5.

Source of the values: patent US20100022491A1, “4-HYDROXY-2-OXO-2,3-DIHYDRO-1,3-BENZOTHIAZOL-7YL COMPOUNDS FOR MODULATION OF B2-ADRENORECEPTOR ACTIVITY” (ASTRAZENECA AB, priority 2006, published 2010).
